# Measurements as given in PubChem BioAssay AID330 (DTP/NCI, 2004).
# Values joined by “and” are separate entries in the source; they are usually repeats but may differ in a detail not shown here. Equal entries are not always repeated. Toxic doses and inconclusive results are not listed.
# System: P388 leukemia ip, CD2F1 mice, survival T/C
# Assay: NCI In Vivo Anticancer Drug Screen. Data for tumor model P388 Leukemia (intraperitoneal) in CD2F1 (CDF1) mice
# Details: endpoint: median survival time, higher = longer survival
# How it was run: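 Mice carrying the transplanted tumor received test compound or vehicle. Survival was recorded in each group, and the value is the treated-group measurement divided by that of the vehicle-treated control group.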
# [1] = dose: 100.0 mg/kg/injection, schedule: Q04DX003 (ip), vehicle: saline
# [2] = dose: 200.0 mg/kg/injection, schedule: Q04DX003 (ip), vehicle: saline
# [3] = dose: 400.0 mg/kg/injection, schedule: Q04DX003 (ip), vehicle: saline
# [4] = dose: 50.0 mg/kg/injection, schedule: Q01DX009 (ip), vehicle: saline
# [5] = dose: 50.0 mg/kg/injection, schedule: Q01DX005 (ip), vehicle: Klucel (hydroxypropylcellulose) (HPC)
# [6] = dose: 100.0 mg/kg/injection, schedule: Q01DX005 (ip), vehicle: Klucel (hydroxypropylcellulose) (HPC)
# [7] = dose: 200.0 mg/kg/injection, schedule: Q01DX005 (ip), vehicle: Klucel (hydroxypropylcellulose) (HPC)
# [8] = dose: 60.0 mg/kg/injection, schedule: Q01DX005 (ip), vehicle: saline with Tween-80
# [9] = dose: 120.0 mg/kg/injection, schedule: Q01DX005 (ip), vehicle: saline with Tween-80
# [10] = dose: 240.0 mg/kg/injection, schedule: Q01DX005 (ip), vehicle: saline with Tween-80
# [11] = dose: 50.0 mg/kg/injection, schedule: Q01DX005 (ip), vehicle: saline with Tween-80
# [12] = dose: 100.0 mg/kg/injection, schedule: Q01DX005 (ip), vehicle: saline with Tween-80
# [13] = dose: 200.0 mg/kg/injection, schedule: Q01DX005 (ip), vehicle: saline with Tween-80
# [14] = dose: 100.0 mg/kg/injection, schedule: Q01DX009 (ip), vehicle: saline
# [15] = dose: 200.0 mg/kg/injection, schedule: Q01DX009 (ip), vehicle: saline
# [16] = dose: 60.0 mg/kg/injection, schedule: Q01DX005 (ip), vehicle: saline
# [17] = dose: 120.0 mg/kg/injection, schedule: Q01DX005 (ip), vehicle: saline
# [18] = dose: 240.0 mg/kg/injection, schedule: Q01DX005 (ip), vehicle: saline
# [19] = dose: 50.0 mg/kg/injection, schedule: Q01DX009 (ip), vehicle: Klucel (hydroxypropylcellulose) (HPC)
# [20] = dose: 100.0 mg/kg/injection, schedule: Q01DX009 (ip), vehicle: Klucel (hydroxypropylcellulose) (HPC)
# [21] = dose: 200.0 mg/kg/injection, schedule: Q01DX009 (ip), vehicle: Klucel (hydroxypropylcellulose) (HPC)
smiles,measurement,setting,value
O=c1sc2ncccc2n1-c1ccc([N+](=O)[O-])cn1,T/C,[1],103 % of control
same,T/C,[2],86 % of control
same,T/C,[3],89 % of control
CC(=O)Sc1nnc2c3ccccc3n(C(C)=O)c2n1,T/C,[1],99 % of control
same,T/C,[2],97 % of control
same,T/C,[3],105 % of control
CS(=O)(=O)C(=Cc1ccccc1Cl)S(C)(=O)=O,T/C,"dose: 50.0 mg/kg/injection, schedule: Q04DX003 (ip), vehicle: Klucel (hydroxypropylcellulose) (HPC)",102 % of control
same,T/C,"dose: 100.0 mg/kg/injection, schedule: Q04DX003 (ip), vehicle: Klucel (hydroxypropylcellulose) (HPC)",107 % of control
same,T/C,"dose: 200.0 mg/kg/injection, schedule: Q04DX003 (ip), vehicle: Klucel (hydroxypropylcellulose) (HPC)",108 % of control
CCN(CC)CCN1c2ccc(C)cc2Sc2ccc3ccccc3c21,T/C,"dose: 50.0 mg/kg/injection, schedule: Q01DX005 (ip), vehicle: saline + Tween-80 + alcohol",112 % of control
same,T/C,"dose: 100.0 mg/kg/injection, schedule: Q01DX005 (ip), vehicle: saline + Tween-80 + alcohol",102 % of control
same,T/C,"dose: 200.0 mg/kg/injection, schedule: Q01DX005 (ip), vehicle: saline + Tween-80 + alcohol",114 % of control
N=C=S.O=NO.O=N[O-].[Co+3].[NH-]CC[NH-].[NH-]CC[NH-],T/C,"dose: 13.0 mg/kg/injection, schedule: Q01DX009 (ip), vehicle: saline",105 % of control
same,T/C,"dose: 25.0 mg/kg/injection, schedule: Q01DX009 (ip), vehicle: saline",113 % of control
same,T/C,[4],103 % of control
COc1ccc(S(=O)(=O)N/N=C/c2ccccn2)cc1OC,T/C,[5],99 % of control
same,T/C,[6],96 % of control
same,T/C,[7],98 % of control
CC(C)(C)c1cc(C(=O)[O-])c([OH2+])c(C(C)(C)C)c1.CC(C)(C)c1cc(C(=O)[O-])c([OH2+])c(C(C)(C)C)c1.[Mn+2],T/C,[8],106 % of control and 111 % of control
same,T/C,[9],105 % of control and 121 % of control
COc1cccc2c1C(CCCC(=O)O)CCC2 (stereo not given),T/C,[5],101 % of control
same,T/C,[6],104 % of control
same,T/C,[7],104 % of control
CSCC(NP1(=O)SC(NN=C2CCCCC2)=NC1(C)C)C(=O)O (stereo not given),T/C,[8],100 % of control
same,T/C,[9],100 % of control
same,T/C,[10],100 % of control
O=C(Nc1ccc(N=C(c2ccccc2)N2CCOCC2)cc1)c1ccc(C(=O)Nc2ccc(N=C(c3ccccc3)N3CCOCC3)cc2)cc1,T/C,"dose: 25.0 mg/kg/injection, schedule: Q01DX005 (ip), vehicle: Klucel (hydroxypropylcellulose) (HPC)",101 % of control
same,T/C,[5],101 % of control
same,T/C,[6],93 % of control
same,T/C,[7],96 % of control
CC(C)[C@]12O[C@H]1[C@@H]1O[C@]13[C@]1(O[C@H]1C[C@H]1C4=C(CC[C@@]13C)C(=O)OC4)[C@@H]2O,T/C,"dose: 62.5 micrograms/kg/injection, schedule: Q01DX009 (ip), vehicle: saline with Tween-80",95 % of control
same,T/C,"dose: 125.0 micrograms/kg/injection, schedule: Q01DX009 (ip), vehicle: saline with Tween-80",95 % of control
same,T/C,"dose: 250.0 micrograms/kg/injection, schedule: Q01DX009 (ip), vehicle: saline with Tween-80",112 % of control
C[CH2][Sn]([CH2]C)([O]P(=O)(C[Si](C)(C)C)c1ccccc1)[O]P(=O)(C[Si](C)(C)C)c1ccccc1 (stereo not given),T/C,"dose: 30.0 mg/kg/injection, schedule: Q01DX005 (ip), vehicle: saline with Tween-80",115 % of control
same,T/C,[9],151 % of control
Cc1cc(C)c(C#N)c(SSC(Cl)(Cl)Cl)n1,T/C,[11],96 % of control
same,T/C,[12],93 % of control
same,T/C,[13],91 % of control
CNC1=C(C)C(=O)C(C)=C(C(C)(C)CC(=O)n2cc(F)c(=O)[nH]c2=O)C1=O,T/C,"dose: 100.0 mg/kg/injection, schedule: Q01DX001 (ip), vehicle: saline with Tween-80",117 % of control
same,T/C,"dose: 200.0 mg/kg/injection, schedule: Q01DX001 (ip), vehicle: saline with Tween-80",122 % of control
Oc1[nH]c2ccccc2c1N=NC(=S)NC1C2CC3CC(C2)CC1C3 (stereo not given),T/C,[11],103 % of control
same,T/C,[12],100 % of control
same,T/C,[13],103 % of control
COC1=CC(=O)C(C2OC(=O)C(Cl)=C2Cl)=CC1=O (stereo not given),T/C,[11],114 % of control
same,T/C,[12],119 % of control
COc1cc(C)c(S(C)=O)cc1OC (stereo not given),T/C,[4],98 % of control
same,T/C,[14],90 % of control
same,T/C,[15],98 % of control
Cc1cc(Nc2ccccc2C(=O)N/N=C/c2ccc(N(CCCl)CCCl)cc2)nc2ccc(Cl)cc12,T/C,[4],95 % of control
same,T/C,[14],90 % of control
same,T/C,[15],95 % of control
O=[N+]([O-])C1=NOCC1,T/C,"dose: 50.0 mg/kg/injection, schedule: Q01DX005 (ip), vehicle: suspension in saline",95 % of control
same,T/C,"dose: 100.0 mg/kg/injection, schedule: Q01DX005 (ip), vehicle: suspension in saline",95 % of control
N#Cc1c2c(c(Cl)n3c1nc1ccccc13)CCC2,T/C,[8],100 % of control
same,T/C,[9],91 % of control
same,T/C,[10],91 % of control
CC1OC(n2ccc(NC(=O)c3ccc(NC(=O)C(C)(N)CO)cc3)nc2=O)CCC1OC1OC(C)C(N(C)C)C(O)C1O (stereo not given),T/C,"dose: 100.0 mg/kg/injection, schedule: Q04DX003 (ip), vehicle: saline with Tween-80",100 % of control
same,T/C,"dose: 200.0 mg/kg/injection, schedule: Q04DX003 (ip), vehicle: saline with Tween-80",100 % of control
same,T/C,"dose: 400.0 mg/kg/injection, schedule: Q04DX003 (ip), vehicle: saline with Tween-80",109 % of control
CCCCCCC(/C=C/c1ccc(Cl)c(Cl)c1)=N\NC(=O)C(N)=O,T/C,[4],101 % of control
same,T/C,[14],101 % of control
same,T/C,[15],110 % of control
COC(=O)C1(C(C)C(=O)c2ccc(Cl)cc2)NC(=S)NC(=O)C1C#N (stereo not given),T/C,[16],104 % of control
same,T/C,[17],106 % of control
same,T/C,[18],108 % of control
COc1c(C(C)C)ccc2c1CCC1=C3COC(=O)C3CCC12C (stereo not given),T/C,"dose: 6.25 mg/kg/injection, schedule: Q01DX009 (ip), vehicle: DMSO",109 % of control
same,T/C,"dose: 12.5 mg/kg/injection, schedule: Q01DX009 (ip), vehicle: DMSO",99 % of control
same,T/C,"dose: 25.0 mg/kg/injection, schedule: Q01DX009 (ip), vehicle: DMSO",97 % of control
S=C(Nc1ccc(Cl)c(Cl)c1)Nc1ccccc1SCc1cc(Cl)cc2c1OCOC2,T/C,[19],96 % of control
same,T/C,[20],88 % of control
same,T/C,[21],98 % of control
Cc1cccnc1Nc1ncccc1C,T/C,[16],102 % of control
same,T/C,[17],102 % of control
same,T/C,[18],102 % of control
CCCCCCCC(=O)N/N=C/c1ccc(O)c(OCC)c1,T/C,[11],95 % of control
same,T/C,[12],90 % of control
Cc1ccccc1SSc1ccccc1C,T/C,"dose: 50.0 mg/kg/injection, schedule: Q01DX009 (ip), vehicle: saline with Tween-80",113 % of control
CC1(C)CC(O)C2OC2(C)C1 (stereo not given),T/C,[4],94 % of control
same,T/C,[14],89 % of control
same,T/C,[15],101 % of control
CCc1nc2c(Br)c3oc(CC)nc3c(C)c2o1,T/C,"dose: 60.0 mg/kg/injection, schedule: Q01DX005 (ip), vehicle: Klucel (hydroxypropylcellulose) (HPC)",97 % of control
same,T/C,"dose: 120.0 mg/kg/injection, schedule: Q01DX005 (ip), vehicle: Klucel (hydroxypropylcellulose) (HPC)",95 % of control
same,T/C,"dose: 240.0 mg/kg/injection, schedule: Q01DX005 (ip), vehicle: Klucel (hydroxypropylcellulose) (HPC)",91 % of control
S=c1n(-c2ccc(Cl)cc2)c2nc3ccccc3nc(/c2=N\Nc2cc(Cl)ccc2Cl)n1-c1ccc(Br)cc1,T/C,[11],100 % of control
same,T/C,[12],105 % of control
same,T/C,[13],97 % of control
C=CCN(CC=C)P1(=O)NCCCO1 (stereo not given),T/C,"dose: 50.0 mg/kg/injection, schedule: Q01DX005 (ip), vehicle: saline",103 % of control
same,T/C,"dose: 100.0 mg/kg/injection, schedule: Q01DX005 (ip), vehicle: saline",102 % of control
same,T/C,"dose: 200.0 mg/kg/injection, schedule: Q01DX005 (ip), vehicle: saline",105 % of control
O=C(CC1=NCCN1)c1ccccc1,T/C,[19],100 % of control
same,T/C,[20],102 % of control
same,T/C,[21],108 % of control
CC(C)C(Nc1nncs1)Nc1nncs1,T/C,[8],103 % of control
same,T/C,[9],109 % of control
same,T/C,[10],118 % of control
